Experimental data from patent publication US8680042B2, “Methods of treating sickle cell anemia-related conditions with MK-801 or memantine” (Universität Zürich Prorektorat MNW, priority 2009, dated 2014).

Molecular target: T1, NMDA receptor in erythrocytes (Homo sapiens, UniProt Q05586)
T1 construct: Potassium and calcium fluxes through the NMDA receptor in erythrocytes of healthy donors (C) and patients with sickle cell anemia; endogenous in cells; host or cells: freshly isolated human erythrocytes (HbSS patients and healthy donors)
Test: Unidirectional K+ (86Rb) and Ca2+ (45Ca) fluxes via the cation channel of the NMDA receptor, radioactive tracer kinetics
Assay type: cell-based
Conditions: for NMDA- and PGE2-sensitive increase in fluxes: stimulated by NMDA (100 μM) or prostaglandine E2 (2 μM), blocker added
Experimental: FIGS. 2A and 2B: Potassium and calcium fluxes through the NMDA receptor in erythrocytes of healthy donors (C) and patients with sickle cell anemia (H). 2A: Unidirectional K^+ influx measured in chloride-free Na-methane sulfate medium in the presence of 100 μM ouabain, the inhibitor of […]. Conditions corresponding to the numbers at the X axis: (1) control; (2) 50 μM memantine chloride (Sigma-Aldhdge); (3) 100 μM NMDA; (4) NMDA+memantine chloride; (5) 2 μM prostaglandine E2 (PGE2); (6) PGE2+memantine chloride. * denotes p<0.05 compared to the corresponding values in healthy donor's erythrocytes, # stands for p<0.05 compared to the corresponding non-treated control. Data are means±SEM for 6-7 individuals. 2B: Unidirectional Ca^2+ influx in erythrocytes of a single HbSS patient measured on 3 different occasions and in three healthy donors. Conditions indicated in numbers at the X axis are: (1) non-treated control; (2) 100 μM NMDA; (3) 100 μM NMDA and 50 μM MK-801. * denotes p<0.05 compared to the corresponding healthy donors' samples.
The following experiments were conducted using fresh-isolated human erythrocytes of HbSS patients and healthy subjects.
Fluxes via the nonselective cation channel of the NMDA receptor were assessed using radioactive tracer kinetics. 86Rb was used as a radioactive tracer for K^+ and 45Ca as a tracer for Ca^2+. Fluxes through the red cell membrane were measures in the medium containing (mM) 145 Na-methane sulfate, 4 K-gluconate, 1 Ca-gluconate, 10 sucrose, 10 glucose and 10 HEPES-Tris (pH 7.4) in the presence of 100 μM L-arginine and 100 μM ouabain. Details of the flux measurement may be found elsewhere (e.g. Bogdanova et al., J Membr Biol. 2003; 195(1):33-42).

SMILES | NMDA- and PGE2-sensitive increase in fluxes | also measured
CCCCC[C@H](O)/C=C/[C@H]1[C@H](O)CC(=O)[C@@H]1C/C=C\CCCC(=O)O [prostaglandine E2] |  | Fluxes of both cations (K+ and Ca2+) (agonist 2 μM): further stimulated
CC12CC3CC(C)(C1)CC(N)(C3)C2 [memantine, Memantine] | could be blocked | 
C[C@]12N[C@H](Cc3ccccc31)c1ccccc12 [MK-801, Dizocilpine] | could be blocked | 
CN[C@H](CC(=O)O)C(=O)O [NMDA, N-methyl D-aspartate] |  | Fluxes of both cations (K+ and Ca2+) (agonist 100 μM): further stimulated
